Where a SMILES comes first, the peptide text is derived from it. The star is where a group is joined. FITC = O=C1OC2(c3ccc(O)cc3Oc3cc(O)ccc32)c2ccc(NC(=S)*)cc21

The target of test [1] is T1, amylin receptor 1 ECD with calcitonin receptor E123D mutation (Homo sapiens, UniProt O60894+P30988, E123D).
T1 construct: pHLsec/hRAMP1.24–111-(GSA)3-hCTR.34–141.E123D-H6 (D-pJJ001); H6 (hexahistidine) (C); made in house; host or cells: HEK293 (transient transfection, secreted, N-glycosylated)
As to the kind of experiment: FP saturation binding, E123D. The following applies: for Average fluorescence intensity change upon receptor ECD binding: % of a free probe intensity, Mean ± S.D., max receptor 3 μM (sCT), 1 μM (AC413); for effect of mutation on binding affinity: compared with E123A, in words. An excerpt:
pHLsec-based vectors were used to express wild-type and mutated amylin receptor 1 extracellular domains as secreted proteins to cell culture media. The plasmid DNA construct of the wild-type amylin receptor 1 extracellular domain, pHLsec/hRAMP1.24–111-(GSA)3-hCTR.34–141-H6 (H-pSL005) was previously described. The following DNA vector plasmids were made for this study: pHLsec/hRAMP1.24–111-(GSA)3-hCTR.34–141.D97A-H6 (D-pSL009), pHLsec/hRAMP1.24–111-(GSA)3-hCTR.34–141.D97E-H6 (D-pJS001), pHLsec/hRAMP1.24–111-(GSA)3-hCTR.34–141.D101A-H6 (D-pJJ003), pHLsec/hRAMP1.24–111-(GSA)3-hCTR.34–141.D101E-H6 (D-pJJ002), pHLsec/hRAMP1.24–111-(GSA)3-hCTR.34–141.E123A-H6 (D-pJJ004), pHLsec/hRAMP1.24–111-(GSA)3-hCTR.34–141.E123D-H6 (D-pJJ001), pHLsec/hRAMP1.24–111-(GSA)3-hCTR.34–141.N124A-H6 (D-pJS005), pHLsec/hRAMP1.24–111-(GSA)3-hCTR.34–141.N124D-H6 (D-pJS006), pHLsec/hRAMP1.24–111-(GSA)3-hCTR.34–141.N135A-H6 (D-pJW001), and pHLsec/hRAMP1.24–111-(GSA)3-hCTR.34–141.N135D-H6 (D-pJS002). The mutations were introduced to the calcitonin receptor extracellular domain by using DNA Assembly reaction. Coding sequences of the receptor expression vectors were confirmed with Sanger sequencing by Bionics (Seoul, Republic of Korea). DNA plasmid vectors were extracted and were purified from bacterial cells with NucleoBond® Extra Midi Plus kit (Macherey-Nagel, Germany). The purified DNA vectors were stored at −20 °C until their use for mammalian cell transfection.
The overall experimental procedure of reconstituting the functional amylin receptor 1 extracellular domain (ECD) as the fusion protein of RAMP1 ECD and the calcitonin receptor ECD was previously described. The wild-type and mutated amylin receptor 1 ECDs were expressed from HEK293 cells with transient transfection with polyethylenimine. The expressed receptor proteins were secreted to cell culture media for 4 days at 37 °C. The media were collected for the receptor protein purification. Initial dialysis was performed with the dialysis buffer (Tris 25 mM (pH 7.4), NaCl 150 mM, and imidazole 10 mM) overnight. […] Then, a size exclusion column chromatography (SEC) was performed with SEC column (Cytiva, HiLoad® 16/600 Superdex® 200 pg) and SEC buffer (Tris 50 mM (pH 7.4), NaCl 150 mM, and glycerol (v/v) 10%) as previously described. As the final step, the purified receptor proteins were dialyzed to storage buffer (HEPES 25 mM (pH 7.4), NaCl 150 mM, and glycerol (v/v) 50 %) and were stored at −60 °C until their use for the receptor–ligand binding assay. […]
The overall procedure of the FP binding assay with a saturation binding format was previously described. […] FITC-labeled peptide probes were incubated for 1 h at room temperature with the purified receptor protein prior to fluorescence signal measurement. […]

Another test deals with receptor ECD. The following applies: receptor ECD binding; cited from earlier work. The procedure: The salmon calcitonin C-terminal fragment was reported to have micromolar affinity (KI 1~3 μM) both for calcitonin and amylin receptor ECDs. The fluorescein isothiocyanate (FITC)-labeled salmon calcitonin fragment (FITC-sCT(22–32)) was used as a peptide probe for the receptor–ligand binding assay in the current study. FITC addition to the N-terminus of an amylin receptor antagonistic peptide AC413(6–25) Y25P was previously shown to increase the peptide affinity for receptor ECD binding by more than 10-fold. Based on the binding affinity of FITC-sCT(22–32) measured in the current ...

T1 sequence (O60894 24-111): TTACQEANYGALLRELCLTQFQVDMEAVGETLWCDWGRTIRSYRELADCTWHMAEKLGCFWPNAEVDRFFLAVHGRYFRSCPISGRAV
T1 sequence (P30988 34-141 E123D): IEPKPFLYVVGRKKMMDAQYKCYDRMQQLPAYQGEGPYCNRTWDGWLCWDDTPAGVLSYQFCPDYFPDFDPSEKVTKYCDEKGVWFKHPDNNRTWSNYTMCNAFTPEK

With `CC(C)C[C@H](NC(=O)[C@H](CCCNC(=N)N)NC(=O)[C@@H](NC(=O)[C@H](CC(C)C)NC(=O)[C@H](Cc1ccccc1)NC(=O)[C@H](CC(N)=O)NC(=O)[C@H](C)NC(=S)Nc1ccc2c(c1)C(=O)OC21c2ccc(O)cc2Oc2cc(O)ccc21)C(C)C)C(=O)N[C@@H](CCC(N)=O)C(=O)N[C@H](C(=O)N[C@@H](Cc1ccc(O)cc1)C(=O)N1CCC[C@H]1C(=O)N[C@@H](CCCNC(=N)N)C(=O)N[C@H](C(=O)N[C@@H](CC(N)=O)C(=O)N[C@H](C(=O)NCC(=O)N[C@@H](C)C(=O)N[C@@H](CC(N)=O)C(=O)N[C@H](C(=O)N1CCC[C@H]1C(N)=O)[C@@H](C)O)C(C)C)[C@@H](C)O)[C@@H](C)O` [FITC-AC413(6–25) Y25P] ({FITC}-ANFLVRLQTYPRTNVGANTP-NH2; C-terminus assumed), in test [1], the “Average fluorescence intensity change upon receptor ECD binding” value is reported as 72 ± 4% and the “effect of mutation on binding affinity” value is “failed to restore the decreased binding affinity”. The “increase of peptide affinity by FITC addition to the N-terminus” value with receptor ECD is listed as “more than 10 fold”.
On to `C[C@@H](O)[C@H](NC(=O)[C@H](CC(N)=O)NC(=O)[C@@H](NC(=O)[C@H](CCCNC(=N)N)NC(=O)[C@@H]1CCCN1C(=O)[C@H](Cc1ccc(O)cc1)NC(=S)Nc1ccc2c(c1)C(=O)OC21c2ccc(O)cc2Oc2cc(O)ccc21)[C@@H](C)O)C(=O)NCC(=O)N[C@@H](CO)C(=O)NCC(=O)N[C@H](C(=O)N1CCC[C@H]1C(N)=O)[C@@H](C)O` [FITC-sCT(22–32)] ({FITC}-YPRTNTGSGTP-NH2; C-terminus assumed), for which, in test [1], the “Average fluorescence intensity change upon receptor ECD binding” value is given as 72 ± 6% and the “effect of mutation on binding affinity” value is reported as “fully restored the decreased binding affinity”.
